The record followed here is US20230227406A1, “MODULATORS OF E3 LIGASES” (Rekindle Therapeutics Inc., priority 2020, published 2023).

Experiment [1] deals with T1, WWP1 (Homo sapiens, UniProt Q9H0M0).
T1 construct: purchased Ubiquigent 63-0034-025/30033/D
The experiment is described as follows: WWP1 MALDI-MS ubiquitin depletion assay (auto-ubiquitination). The format is biochemical. Particulars: 30 min pre-incubation, 90 minutes at 37° C. The procedure: Modulators designed in these ways were tested for HECT domain E3 ligase activity in a MALDI TOF assay of auto-ubiquitination (De Cesare et al, Cell Chem. Biol, 2018, 25, 1117)
UBE1 (E-305 Boston Biochem), UBE2D1 (E2-616 Boston Biochem), WWP1 (Ubiquigent #63-0034-025/30033/D), ubiquitin variants (Boston Biochem; ubiquitin: U-100H; WT-His6-Ub: U-530; K27R-His6-Ub:UM-HK27R; K27O-His6-Ub: UM-HK27O), alpha-cyano-4-hydroxycinnamic acid (CHCA), ATP, trifluoroacetic acid (Millipore Sigma, St. Louis, Mo.), 384-well round-bottom polypropylene microplates (781280, Greiner, Stonehouse, UK), 384-well Anchorchip MALDI targets and Peptide Calibration Standard II (Bruker Daltonics, Billerica, Mass.).
Protocol: The WWP1 ubiquitin depletion assay consists of recombinant UBE1 (5 nM), UBE2D1 conjugating enzyme (60 nM) and WWP1 ligase (50 nM) in a 10 mM HEPES pH 8.0 containing 0.1 mg/mL BSA, 10 mM MgCl2, 1 mM ATP and 1500 nM ubiquitin. Screening was performed by dispensing 3.5 μL of an enzyme solution containing UBE1 (10 nM), UBE2D1 (120 nM), WWP1 (100 nM), ubiquitin ([…]) to a 384-well round bottom polypropylene plates followed by incubation at 37° C. for 30 min. Reactions were initiated by the addition of 3.5 μL of an ATP solution (2000 nM) then incubated at 37° C. for 90 minutes before being quenched by the addition of 5 μL of a 50 mM EDTA solution containing 750 nM of a ubiquitin labelled with a histidine expression tag (m/z=9460.0 Da).
For detection of ubiquitin and the ubiquitin-6His internal standards, 50 nL of quenched reaction was dispensed onto a 384-well Anchorchip MALDI target plate (Bruker) pre-coated with a uniform layer of CHCA crystals immediately followed by 200 nL of a 3 mg/mL CHCA matrix solution (6 mg of CHCA dissolved in 0.7 mL of 100% ethanol and 1.3 mL of 0.31% aqueous TFA) using a TTP Labtech Mosquito liquid handler. Spectra for all reactions were acquired on a Bruker AutoFlex II in positive linear TOF mode from 1000 laser shots with ion suppression below 4000 Da. Spectra were analyzed for response using a centroid peak-fitting algorithm to quantify ubiquitin (m/z=8564.0 Da) and ubiquitin-6His (m/z=9460.0 Da) followed taking the ratio of intensities of ubiquitin and the ubiquitin-6His internal standard.
For compound screening, 140 nL of diluted compound in 100% DMSO was added to the WWP1 enzyme solution and pre-incubated for 30 minutes prior to reaction initiation.

Experiment [2] has as its system phosphorylated AKT and phosphorylated Ribosomal Protein S6. The experiment is described as follows: Western blot of AKT and S6 phosphorylation in BT-20 cells. Particulars: indicated doses. The experiment is classed as cell-based, human. An excerpt: The data presented here are consistent with the previous replicate in Hs578T cells, and the observation is preserved in another TNBC cell line, BT-20. COMPOUND 1 reduces the phospho-AKT/vinculin loading control and phospho-S6/total S6 ratios. Methods are the same as the previous replicate, using the indicated doses.
The data presented here are consistent with the previous replicate in Hs578T cells. COMPOUND 6 reduces the phospho-AKT/vinculin loading control and phospho-S6/total S6 ratios in BT-20 cells. Methods are the same as the previous replicate, using the indicated doses.

A further experiment deals with PD-L1. The experiment is described as follows: Western blot of PD-L1 in BT-20 cells. The experiment is classed as cell-based, human. Particulars: indicated doses. An excerpt: The data presented here are consistent with the previous replicate in Hs578T cells, and the observation is preserved in another TNBC cell line, BT-20. COMPOUND 1 increases PD-L1 levels and the glycosylated PD-L1/non-glycosylated PD-L1 ratio. Methods are the same as the previous replicate, using the indicated doses.
The data presented here are consistent with the previous replicate in Hs578T cells. COMPOUND 6 reduces the PD-L1/vinculin loading control ratio in BT-20 cells. […] Methods are the same as the previous replicate, using the indicated doses.

In experiment [3] the target is T1, WWP1. The experiment is described as follows: In vitro WWP1-dependent ubiquitination of PTEN, western blot and LC-MS/MS. The experiment is classed as biochemical. The following applies: 2 hours, indicated doses of inhibitor. On the procedure: In vitro ubiquitination reactions were carried out for 2 hours using the indicated doses of inhibitor. Increasing doses of inhibitor block PTEN substrate ubiquitination, which correlates with remaining free ubiquitin. The “0” concentration is DMSO only (0.5%, same as was used for compound doses). No E1 and No E3 negative controls are present (only free ubiquitin present). Analysis occurred by western blot using an anti-ubiquitin antibody. A fraction of these samples was digested with Trypsin/LysC and labeled with TMT quantification reagents prior to LC-MS/MS analysis.
In vitro ubiquitination reactions were carried out for 2 hours using the indicated doses of inhibitor. Increasing doses of inhibitor block PTEN substrate ubiquitination, which correlates with remaining free ubiquitin. The “0” concentration is DMSO only (0.5%, same as was used for compound doses). No E1 and No E3 negative controls are present (only free ubiquitin present). Analysis occurred by western blot using an anti-ubiquitin antibody.

T1 sequence (Q9H0M0 whole entry): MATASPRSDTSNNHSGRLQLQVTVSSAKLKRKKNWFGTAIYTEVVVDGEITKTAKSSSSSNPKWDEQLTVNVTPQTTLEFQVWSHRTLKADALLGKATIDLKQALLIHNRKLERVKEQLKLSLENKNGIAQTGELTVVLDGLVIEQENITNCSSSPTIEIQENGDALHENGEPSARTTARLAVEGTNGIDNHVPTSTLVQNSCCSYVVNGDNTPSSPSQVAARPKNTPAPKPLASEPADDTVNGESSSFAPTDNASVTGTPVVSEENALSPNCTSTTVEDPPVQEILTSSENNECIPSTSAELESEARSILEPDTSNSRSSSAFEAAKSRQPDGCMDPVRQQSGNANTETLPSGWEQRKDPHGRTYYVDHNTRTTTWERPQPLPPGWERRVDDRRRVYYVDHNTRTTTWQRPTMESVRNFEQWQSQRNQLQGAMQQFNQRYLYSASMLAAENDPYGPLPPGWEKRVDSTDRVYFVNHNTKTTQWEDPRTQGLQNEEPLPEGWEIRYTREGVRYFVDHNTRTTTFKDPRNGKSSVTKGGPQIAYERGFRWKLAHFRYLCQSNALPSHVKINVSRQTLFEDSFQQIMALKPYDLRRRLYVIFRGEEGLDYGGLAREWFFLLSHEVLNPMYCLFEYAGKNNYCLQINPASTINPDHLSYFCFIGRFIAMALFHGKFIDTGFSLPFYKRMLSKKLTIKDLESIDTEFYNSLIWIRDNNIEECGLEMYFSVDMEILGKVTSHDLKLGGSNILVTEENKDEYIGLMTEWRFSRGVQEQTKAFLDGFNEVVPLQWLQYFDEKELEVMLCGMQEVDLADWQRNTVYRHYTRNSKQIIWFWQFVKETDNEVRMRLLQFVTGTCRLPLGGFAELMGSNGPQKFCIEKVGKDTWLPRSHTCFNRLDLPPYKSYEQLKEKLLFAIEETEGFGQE

For `C#Cc1ccc2c(C=O)cn(-c3ccccc3)c2c1` [Compound 1, 6-ethynyl-1-phenyl-1H-indole-3-carbaldehyde], inhibition at WWP1 [1] was half-maximal at 5 µM (IC50). In experiment [2], the “phospho-AKT/vinculin loading control ratio” value was “reduces” and the “phospho-S6/total S6 ratio” value is listed as “reduces”. Moreover, in the experiment with PD-L1, the “PD-L1 glycosylation (glycosylated/non-glycosylated PD-L1 ratio)” value is “increases” and the “PD-L1 levels (PD-L1/vinculin loading control ratio)” value is reported as “increases”.

Take `C#CCNC(=O)c1ccc2c(Cc3c[nH]c4ccccc34)c[nH]c2c1` [Compound 6, 3-((1H-indol-3-yl)methyl)-N-(prop-2-yn-1-yl)-1H-indole-6-carboxamide]: 32 µM corresponded to half-maximal inhibition on WWP1 [1] (IC50). In experiment [2], the “phospho-AKT/vinculin loading control ratio” value was “reduces” and the “phospho-S6/total S6 ratio” value is on record as “reduces”. In addition, in the experiment with PD-L1, the “PD-L1 glycosylation (glycosylated/non-glycosylated PD-L1 ratio)” value is on record as “probably reduces” and the “PD-L1 levels (PD-L1/vinculin loading control ratio)” value is recorded as “reduces”.

The compound `C#CCN(CCO)C(=O)c1ccc2c(Cc3c[nH]c4ccccc34)c[nH]c2c1` [Compound 7, 3-((1H-indol-3-yl)methyl)-N-(2-hydroxyethyl)-N-(prop-2-yn-1-yl)-1H-indole-6-carboxamide] returned an IC50 against WWP1 [1] of 15 µM. The “WWP1 dependent ubiquitination of PTEN (western blot, anti-ubiquitin)” value on WWP1 [3] was “Inhibits WWP1-Dependent Ubiquitination of PTEN, in a Dose-Dependent Manner”.
